{
  "source": "patent US20250319162A1",
  "about": "“METHODS AND MATERIALS FOR TREATING OBESITY” (Regents of the University of California, priority 2024, published 2025)",
  "key": {"[1]": {"test_system": "Drp1 S637 phosphorylation in 3T3-L1 adipocytes", "assay": "Immunoblot of phospho-Drp1 (S637) in 3T3-L1 adipocytes after forskolin", "assay_type": "cell-based, murine", "details": "pretreated with 50 μM RBC8 or DMSO for 30 min, then 5 μM forskolin", "text": "Immunoblotting of phospho-Drp1 S637, total Drp1 and β-Tubulin in iWAT of HFD-fed Rala^f/f (n=10) and Rala^AKO (n=13) mice. FIGS. 12B and 12C: Immunoblotting (FIG. 12B) and quantification (FIG. 12C) of phospho-Drp1(S637), total Drp1, and β-Tubulin in eWAT of HFD-fed Rala^f/f (n=8) and Rala^AKO (n=12) mice. FIGS. 12D and 12E: Immunoblotting (FIG. 12D) and quantification (FIG. 12E) of phospho-Drp1(S637), total Drp1 and β-Actin in iWAT of CD-fed mice. Non-fasted Rala^f/f (vehicle n=3, CL n=4) and Rala^AKO (vehicle n=3, CL n=5) mice fed with CD were i.p. injected with 1 mg/kg CL for 30 min. P=0.0054, P=0.0135 (FIG. 12E). FIGS. 12F and 12G: Immunoblotting (FIG. 12F) and quantification (FIG. 12G) of phospho-Drp1(S637), total Drp1, RalA, and β-Actin in fully differentiated primary adipocytes (n=4 biological samples). P=0.0085, P=0.0046 (FIG. 12G). […] FIGS. 12H and 12I: Immunoblotting (FIG. 12H) and quantification (FIG. 12I) of phospho-Drp1(S637), total Drp1, RalA, and β-Actin in immortalized adipocytes (n=4 biological samples). […] FIGS. 12J and 12K: Immunoblotting (FIG. 12J) and quantification (FIG. 12K) of phospho-Drp1(S637), total Drp1, and β-Actin in 3T3-L1 adipocytes (n=4 biological samples). […] FIGS. 12M and 12N: Quantification of phospho-HSL (S660) and HSL in primary (FIG. 12M) and immortalized adipocytes (FIG. 12N) treated with CL for indicated time (n=4 biological samples). […]"}, "[2]": {"test_system": "Drp1 S637 phosphorylation in human primary adipocyte cell line SGBS", "assay": "Immunoblot of phospho-Drp1 (S637) in human primary adipocytes (SGBS) after forskolin", "assay_type": "cell-based", "details": "SGBS cells; pretreated with 50 μM RBC8 or DMSO for 30 min, then 20 μM forskolin", "method": "FIGS. 5A-5J. […] FIG. 5A: Quantification of phospho-Drp1 (S637) and total Drp1 in iWAT of HFD-fed Rala^f/f (n=10) and Rala^AKO (n=13) mice; P=0.0001. FIGS. 5B and 5C: Immunoblotting (FIG. 5B) and quantification (FIG. 5C) of phospho-Drp1 (S637) and total Drp1 in immortalized adipocytes (n=4 biological samples); P=0.0125 (FIG. 5C). Adipocytes were treated with 20 μM forskolin (Fsk) for indicated time. FIGS. 5D and 5E: Immunoblotting (FIG. 5D) and quantification of phospho-Drp1 (S637) and total Drp1 in human primary adipocytes (SGBS) (n=4 biological samples). […] Significance in correlation was assessed by Spearman's correlation test (FIGS. 5H, and 5J). […]\nTissues or cells were lysed or homogenized in RIPA buffer with freshly added Halt Protease and Phosphatase Inhibitor Cocktail (Thermo Fisher). […] Cleared supernatants were collected and concentrations were determined with a BCA protein assay kit (Pierce) and iTecan plate reader for quantification. […] Individual 10 proteins were detected with the specific antibodies (OXPHOS ab110413, β-tubulin 2146S, phospho-Drp1 (Ser637) 4867S, phospho-HSL (Ser660) 45804S, HSL 4107S, MYC 2276S, Drp1 8570S, phosphor-AMPK (Thr172) 2535S, AMPK 5831S, RalA BD610221, β-actin 66009-1-Ig, Flag 66008-4-Ig, GFP 66002-1-Ig, and Sec512751-1-AP). […] Bands were quantified with ImageStudio or ImageJ."}},
  "data": [
    {"smiles": "COc1ccc(OC)c(C2C(C#N)=C(N)Oc3n[nH]c(-c4ccc5ccccc5c4)c32)c1", "note": "(centres unmarked) [RBC8]", "values": [
      {"measurement": "forskolin-stimulated Drp1 S637 phosphorylation", "setting": "[1]", "result": "significantly increased forskolin-stimulated Drp1 S637 phosphorylation"},
      {"measurement": "forskolin-stimulated Drp1 S637 phosphorylation", "setting": "[2]", "result": "increased forskolin-stimulated Drp1 S637 phosphorylation"}
    ]}
  ]
}
